Drawing on patent US20140221499A1, “NOVEL RODENT CONTROL AGENTS AND USES THEREOF” (priority 2011, published 2014), this text covers EC50 for two compounds.

One test has as its target T1, mTAAR4 (Mus musculus, UniProt Q5QD15).
T1 construct: Full Taar coding regions were cloned into pcDNA3.1; expressed in transfected cells; host or cells: HEK293
T1 sequence (Q5QD15 with tags, fused parts or gaps): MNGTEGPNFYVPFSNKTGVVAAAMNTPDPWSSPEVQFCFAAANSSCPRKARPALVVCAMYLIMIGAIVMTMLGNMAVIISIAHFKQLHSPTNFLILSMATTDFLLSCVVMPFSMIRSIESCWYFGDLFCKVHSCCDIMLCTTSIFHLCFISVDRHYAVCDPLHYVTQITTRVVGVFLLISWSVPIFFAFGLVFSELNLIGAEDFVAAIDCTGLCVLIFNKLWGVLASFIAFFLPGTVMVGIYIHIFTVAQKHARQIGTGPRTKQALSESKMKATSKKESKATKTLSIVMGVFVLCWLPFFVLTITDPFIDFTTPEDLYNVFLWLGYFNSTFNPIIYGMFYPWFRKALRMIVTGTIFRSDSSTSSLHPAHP
The experiment in a line: CRE-SEAP reporter gene assay in HEK293 cells transfected with mTAAR4 (fusion with N-terminal sequence of bovine rhodopsin, 'Rho tag'). The test is classed as cell-based. To be noted: FIG. 11B, mTAAR4 required a 'Rho tag' (N-terminal bovine rhodopsin sequence, first 20 amino acids), EC50 ± s.e.m., 4-parameter Hill equation. A general note: A reporter such as luciferase makes a cellular process visible.

In a further test the target is T2, rTAAR9 (Rattus norvegicus, UniProt Q923Y6).
T2 construct: Full Taar coding regions were cloned into pcDNA3.1; expressed in transfected cells; host or cells: HEK293
T2 sequence (Q923Y6 1-338): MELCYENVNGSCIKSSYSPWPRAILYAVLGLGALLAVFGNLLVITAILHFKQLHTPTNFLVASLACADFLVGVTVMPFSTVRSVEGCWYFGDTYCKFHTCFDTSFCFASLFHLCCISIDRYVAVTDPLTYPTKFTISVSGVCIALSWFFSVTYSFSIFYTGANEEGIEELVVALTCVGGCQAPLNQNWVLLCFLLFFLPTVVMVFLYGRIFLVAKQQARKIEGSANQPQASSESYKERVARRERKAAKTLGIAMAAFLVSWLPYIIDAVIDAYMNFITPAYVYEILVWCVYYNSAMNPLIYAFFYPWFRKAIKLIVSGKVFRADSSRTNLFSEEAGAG
Put plainly: CRE-SEAP reporter gene assay in HEK293 cells transfected with rTAAR9. The test is classed as cell-based. Conditions: FIG. 11A, functional with or without 'Rho tag', EC50 ± s.e.m., 4-parameter Hill equation. The protocol:
FIG. 11 illustrates the dose-dependent responses of TAARs to amines. HEK293 cells were cotransfected with plasmids encoding CRE-SEAP and rTAARs (a) or mTAARs (b), incubated with concentrations of ligands indicated, and assayed for reporter activity (triplicates±s.d.). EC50 values (±s.e.m, bottom right) were calculated using SigmaPlot (Systat Software) and a 4-parameter Hill equation.
The following mixes (10 μM of each indicated compounds) were tested for their ability to activate rat TAARs. Mix 1: butylamine, dibutylamine, hexylamine. Mix 2: 2-aminopentane, isoamylamine, isobutylamine, isopropylamine. Mix 3: N,N-dimethylcyclohexylamine, 1-methylindole, tryptamine, phenylethylamine. Mix 4: indole, 1-methylpyrrolidine, 1-methylpiperidine, pyrrolidine. […]
Full Taar coding regions were cloned into pcDNA3.1-(Invitrogen) with or without a 5′ DNA extension of 69 bp encoding the first 20 amino acids of bovine rhodopsin followed by a cloning linker ([…]). […] Fluorescence was measured on an EnVision plate reader (Perkin Elmer) and SEAP activity graphed as relative fluorescence of a phosphatase substrate.
Here, we set out to identify agonists for additional mouse and rat TAARs. […] Transfected cells were incubated with test chemicals, and phosphatase activity was quantified with a fluorescent substrate as a reporter for TAAR activation. […]

Description for mTAAR4: (A) HEK293 cells were transfected with TAAR4 and reporter plasmids, incubated with urine extracts of species indicated, and assayed for reporter activity (triplicates±SD). […] TAAR4 was expressed as a fusion protein with an N-terminal sequence of bovine rhodopsin, which provided enhanced signal (24). […] Urine (diluted 300- or 100-fold) or urine extracts (diluted 30-, 10-, or 3-fold) of species indicated were tested (triplicates±s.d.).
FIG. 11 illustrates the dose-dependent responses of TAARs to amines. […] EC50 values (±s.e.m, bottom right) were calculated using SigmaPlot (Systat Software) and a 4-parameter Hill equation.
Full Taar coding regions were cloned into pcDNA3.1-(Invitrogen) with or without a 5′ DNA extension of 69 bp encoding the first 20 amino acids of bovine rhodopsin followed by a cloning linker ([sequence]). […] Fluorescence was measured on an EnVision plate reader (Perkin Elmer) and SEAP activity graphed as relative fluorescence of a phosphatase substrate.
HEK293 cells were co-transfected with TAAR expression plasmids and a cAMPdependent reporter gene encoding secreted alkaline phosphatase (CRE-SEAP). Transfected cells were incubated with urine extracts from different mammalian species, and phosphatase activity was quantified with a fluorescent substrate as a reporter for TAAR activation.

The term EC50 denotes the concentration giving half of the maximal effect. Read a high EC50 as lower potency in that assay. Compound `NCCc1ccccc1` [2-phenylethylamine] had a concentration giving a half-maximal response (EC50) at mTAAR4 of 7.5 ± 3.7 µM.

The compound `CN(C)C1CCCCC1` [N,N-DIMETHYLCYCLOHEXYLAMINE, N,N-dimethylcyclohexylamine] returned an EC50 on rTAAR9 of 26.6 ± 1.9 µM.
